Measured values taken from US20200268711A1, “Use Of Carbamate Compound For Reducing Or Treating Developmental Disorders Including Fragile X Syndrome, Angelman Syndrome Or Rett Syndrome” (SK BIOPHARMACEUTICALS CO., LTD., priority 2017, published 2020).

Tests used:
Assay type in all cases: in vivo
[1] = tested on: Fmr1 gene-deficient mouse; test: Audiogenic seizure test in Fmr1 gene-deficient mouse model; conditions: for Percent seized / Percent survival / Time to seizure occurrence / Time to respiratory arrest: 30 minutes before the test; for Time to seizure occurrence: 135 dB sound, 300 seconds if seizure does not occur; for Time to respiratory arrest: 300 seconds if mouse survives without respiratory arrest; for Median seizure score (seizure intensity level): compared to the vehicle administration group, score 0-5
Experimental: (§1) Male FVB.129P2-Pde6b^+ Tyr^c-ch Fmr1^tm1Cgr/J gene-deficient mice were purchased from Jackson Laboratories, and audiogenic seizure experiments were performed at 3 weeks of age. After purchase, the experimental animals were maintained under a controlled lighting environment (12 hours lighting/12 hours non-lighting) and maintained at a temperature of 20-23° C. and about 50% relative humidity. Food and water were provided ad libitum. Mice were randomly divided into groups. The test was carried out under lighting.
MPEP (2-methyl-6-(phenylethynyl)pyridine) HCl was used as a positive control, dissolved in sterile injectable saline, and administered intraperitoneally at a dose of 30 mg/kg. MPEP was prepared at a volume of 10 ml/kg and administered 30 minutes before the test.
Test Compound was dissolved in 30% PEG 300, and two doses of 10 mg/kg and 20 mg/kg were used, Test Compound was prepared at a volume of 10 ml/kg and administered intraperitoneally 30 minutes before the test. As a negative control, a vehicle (30% PEG 300) was administered.
Vehicle, MPEP or Test Compound was administered to mice of 21 days of age 30 minutes before the test. Mice were placed in a Plexiglas chamber for 15 seconds and exposed to 135 decibels (dB) of sound. During the test for 5 minutes, the mice were scored as following criteria based on the reaction of the mouse, the time required until the reaction and the intensity of the seizure.
1: Wild running and jumping
The following endpoints were measured and observed, and in the case of animals that had no reaction, the time to reaction was set to 300 seconds for convenience in analysis.
2. Time to respiratory arrest (300 seconds if mouse survives without respiratory arrest)
Data were analyzed by ANOVA, and if appropriate, Fisher PLSD post-hoc analysis was performed. The average seizure intensity was analyzed non-parametrically. The effect was defined as significant when p<0.05. Results are represented as mean values ±standard error.

[2] = tested on: Fmr1 gene-deficient mouse; test: Fear conditioning test (contextual and cued) in Fmr1 gene-deficient mouse model; conditions: day 6; for Freezing during contextual fear conditioning test: in comparison with the vehicle administration group
Experimental: as §1, with “Laboratories.” for “Laboratories, and audiogenic seizure experiments were performed at 3 weeks of age.”, “The drugs were administered once a day for 6 days at 8 weeks of age. The” for “The”
(§2) Test Compound was dissolved in 30% PEG 300, and two doses of 10 mg/kg and 20 mg/kg were used. Test Compound was prepared at a volume of 10 ml/kg and administered intraperitoneally 30 minutes before the test.
2. Fear conditioning test: On day 5 and day 6 of administration, and 30 minutes after administration, training and drug efficacy tests were carried out, respectively. The test was performed using a fear conditioning system manufactured by Coulbourn Instruments (PA, USA).
Training was done 30 minutes after administration on day 5 of administration. The mice were placed in a conditioning chamber and accustomed to the environment for 120 seconds, and then exposed to 6 kHz, 75 dB sound stimulus (conditioned stimulus) for 20 seconds. 30 seconds after the end of the conditioned stimulation, 0.5 mA electrostimulation shock (unconditioned stimulus) was applied to the mouse paws. Mice were left in the conditioning chamber for an additional 60 seconds and then returned to the original cage.
On the morning of day 6, 30 minutes after administration mice were placed in the same chamber as the previous day, and then trained for 5 minutes without shock or other obstructions in order to perform a drug efficacy test for contextual memory. On day 6, after 4 hours of the contextual conditioning test, a drug efficacy test was performed on cued memory by stimulus signals. The mice were exposed to a new environment for 2 minutes (before the stimulation signal), and conditions and stimulation were applied three times in total for 20 seconds. Freezing behavior was defined as the complete loss of movement and was captured using a video system and FreezeView software (Coulbourn Instrument Penn., USA). The chamber was cleaned with 70% ethanol with each mouse change.
The data were analyzed by ANOVA, and if appropriate, Fisher PLSD post-hoc analysis was performed using Statview software. The effect was defined as significant when p<0.05. Results are represented as mean values ±standard error.

[3] = tested on: Fmr1 gene-deficient mouse; test: Open field test (locomotor activity, rearing) in Fmr1 gene-deficient mouse model; conditions: 20 mg/kg i.p. once a day, day 4 of administration; 60 minutes; in comparison with the vehicle administration group
Experimental: as §1, with “Laboratories.” for “Laboratories, and audiogenic seizure experiments were performed at 3 weeks of age.”, “The drugs were administered once a day for 6 days at 8 weeks of age. The” for “The”
as §2
1. Locomotor activity: Locomotor activity test was performed on day 4 of administration in the course of administering daily for 6 days in 8-week-old mice.
A Plexiglas square chamber (27.3×27.3×20.3 cm) surrounded by infrared rays was used to measure the horizontal and vertical movements. Mice were acclimatized to the laboratory for at least 1 hour before the test and then placed in the center of the chamber to measure activity in the open field for 1 hour. […] The distance was measured by the breakage of the horizontal light beam by the movement of the mouse. […]
The data were analyzed by ANOVA, and if appropriate, Fisher PLSD post-hoc analysis was performed using Statview software. […]

[4] = 20 mg/kg i.p. once a day, compared with the vehicle administration group

## Cc1cccc(C#Cc2ccccc2)n1 [MPEP, 2-methyl-6-(phenylethynyl)pyridine, reference compound]
[1]; 30 mg/kg i.p.
  Percent seized: No seizures occurred
  Percent survival: 100%
  Time to seizure occurrence: 300 s
  Time to respiratory arrest: 300 s
  Median seizure score (seizure intensity level): significantly reduced

## NC(=O)O[C@@H](Cn1ncnn1)c1ccccc1Cl [Test Compound, Carbamic acid (R)-1-(2-chlorophenyl)-2-tetrazol-2-yl-ethyl ester]
[2]; 10 mg/kg i.p. once a day, compared with the vehicle administration group
  Rate of freezing in cue test, while the stimulus signal was given: significantly increased
[2]; 10 mg/kg i.p. once a day
  Freezing during contextual fear conditioning test: significantly increased
[2]; [4]
  Freezing in cue test, after the stimulus signal: significant increase
  Rate of freezing in cue test, while the stimulus signal was given: significantly increased
[2]; 20 mg/kg i.p. once a day
  Freezing during contextual fear conditioning test: significantly increased
[3]
  Locomotor activity (total distance traveled): significantly decreased
  Rearing activity: decreased
[1]; 10 mg/kg i.p.
  Percent seized: No seizures occurred
  Percent survival: 100%
  Time to seizure occurrence: 300 s
  Time to respiratory arrest: 300 s
  Median seizure score (seizure intensity level): significantly reduced
[1]; 20 mg/kg i.p.
  Percent seized: No seizures occurred
  Percent survival: 100%
  Time to seizure occurrence: 300 s
  Time to respiratory arrest: 300 s
  Median seizure score (seizure intensity level): significantly reduced
